US5504101A, “5-HT-1D receptor ligands” (priority 1994, dated 1996)

Molecular target: T1, 5-HT1Dβ receptor (Homo sapiens, UniProt P28222)
T1 construct: expressed in transfected cells
Experiment: biochemical
Format: binding
Conditions: ^3 H-5-HT radioligand; membranes from recombinant cells; 15 minute incubation at 37° C.; test compound 10^-11 M to 10^-5 M
Experimental: The assay protocol generally entailed the incubation of membranes prepared from cells expressing the 1Dβ sub-type of 5-HT1D receptors, with ^3 H-5-HT. Increasing concentrations of the test compound were incubated with the radioligand and the membrane homogenates prepared from the recombinant cells. After a 15 minute incubation at 37° C., the incubation was terminated by vacuum filtration. The filters were washed with buffer and counted for radioactivity using liquid scintillation spectrometry. The affinity of the test compound for 5-HT1DIβ receptor was determined by computer-assisted analysis of the data and by determining the amount of the compound necessary to inhibit 50% of the binding of the radioligand to the receptor. Concentrations ranging from 10^-11 M to 10^-5 M of the test compounds were evaluated.

T1 sequence (P28222 whole entry): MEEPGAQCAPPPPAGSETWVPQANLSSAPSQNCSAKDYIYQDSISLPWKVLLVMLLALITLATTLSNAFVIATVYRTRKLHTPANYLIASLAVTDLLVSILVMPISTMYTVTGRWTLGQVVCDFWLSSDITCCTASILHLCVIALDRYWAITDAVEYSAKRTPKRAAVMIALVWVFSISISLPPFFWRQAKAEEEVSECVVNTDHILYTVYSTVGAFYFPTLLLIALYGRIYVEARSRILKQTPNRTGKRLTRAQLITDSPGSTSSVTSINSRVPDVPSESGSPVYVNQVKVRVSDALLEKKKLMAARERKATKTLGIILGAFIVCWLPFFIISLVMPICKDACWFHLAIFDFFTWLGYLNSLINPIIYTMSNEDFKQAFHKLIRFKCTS

For NCCc1c[nH]c2ccc(OCc3ccccc3)cc12 [PhCH2 O--, 3-(2-aminoethyl)-5-benzyloxyindole, reference compound], which Ki is on record?
Its Ki is 10.5 nM.

Which Ki does the source give for NCCc1c[nH]c2ccc(Cc3ccccc3)cc12 [PhCH2 --, 3-(2-aminoethyl)-5-benzylindole] here?
Its Ki is 3.7 nM.

With NCCc1c[nH]c2ccc(OCCCCc3ccccc3)cc12 [Ph(CH2)4 O--, 3-(2-aminoethyl)-5-(4-phenylbutyloxy)indole] as the compound, how does the Ki read?
The Ki was 0.19 nM.

NCCc1c[nH]c2ccc(OCCCCCc3ccccc3)cc12 [Ph(CH2)5 O--, 3-(2-aminoethyl)-5-(5-phenylpentyloxy)indole] was tested. Which Ki did it give?
The Ki was 0.64 nM.

Which Ki does the source give for NCCc1c[nH]c2ccc(OCCCCCCCCc3ccccc3)cc12 [Ph(CH2)8 O--, reference compound] here?
Its Ki is 13.3 nM.

For COc1ccc(CCc2ccc3[nH]cc(CCN)c3c2)cc1 [4-MeO--Ph(CH2)2 --, 3-(2-aminoethyl)-5-(2-(4-methoxyphenyl)ethyl)indole], which Ki is on record?
Its Ki is 3.2 nM.

NCCc1c[nH]c2ccc(OCCc3ccccc3)cc12 [Ph(CH2)2 O--, 3-(2-aminoethyl)-5-(2-phenylethyloxy)indole] was tested. Which Ki did it give?
The Ki was 1 nM.

Which Ki does the source give for NCCc1c[nH]c2ccc(CCc3ccccc3)cc12 [Ph(CH2)2 --, 3-(2-aminoethyl)-5-(2-phenylethyl)-indole] here?
The Ki was 2.9 nM.

For NCCc1c[nH]c2ccc(OCCCCCCc3ccccc3)cc12 [Ph(CH2)6 O--, 3-(2-aminoethyl)-5-(6-phenylhexyloxy)indole], which Ki is on record?
The Ki was 1.9 nM.
